For orientation: melting point means the temperature, or range, at which the solid turns liquid.

`CCC(CC)Nc1c(Br)c(CBr)nc2c1nnn2-c1c(C)cc(C)cc1C` [Example 6, [6-Bromo-5-bromomethyl-3-(2,4,6-trimethyl-phenyl)-3H-[1,2,3]triazolo[4,5-b]pyridin-7-yl]-(1-ethyl-propyl)-amine]: the melting point lay within 123 to 125 °C.

For the origin of these results see patent publication US6900217B2, “Substituted 6,5-hetero-bicyclic derivatives” (Pfizer Inc, priority 1996, dated 2005).
